Source: patent US20250115620A1, “BRIDGED TRICYCLIC CARBAMOYLPYRIDONE COMPOUNDS AND USES THEREOF” (Gilead Sciences, Inc., priority 2022, published 2025)
Read-outs that look alike come from different tables or passages of the source.

Columns and labels:
HIV-1 (IIIB) = experiment: microbe, parasite or virus in culture; assay type: cell-based; conditions: Human immunodeficiency virus 1, IIIB, MT4, 120 h, read-out: MT4 EC50
Method: Compounds were tested in a high-throughput 384-well assay format for their ability to inhibit the replication of HIV-1 (IIIB) in MT-4 cells. Compounds were serially diluted (1:3) in DMSO on 384-well polypropylene plates and further diluted 200-fold into complete RPMI media (10% FBS, 1% P/S) using the Biotek Micro Flow and Labcyte ECHO acoustic dispenser. Each plate contained up to 8 test compounds, with negative (No Drug Control) and 5 μM AZT positive controls. MT-4 cells were pre-infected with 10 μL of either RPMI (mock-infected) or a fresh 1:250 dilution of HIV-1 IIIB concentrated virus stock. Infected and uninfected MT-4 cells were further diluted in complete RPMI media and added to each plate using a Micro Flow dispenser. After 5 days incubation in a humidified and temperature controlled incubator (37° C.), Cell Titer Glo (Promega) was added to the assay plates and chemiluminescence read using an Envision plate-reader.

pLAI reporter virus = experiment: microbe, parasite or virus in culture; assay type: cell-based, HIV; conditions: Human immunodeficiency virus 1, MT4, 72 h
in vitro = conditions: human; for CC50 at 5 days: uninfected MT-4 cells
[1] = HIV-1 (IIIB) in MT-4 cells, 5 days incubation, Cell Titer Glo

Row | SMILES | EC50 (HIV-1 (IIIB); [1]) [nM] | EC50 (pLAI reporter virus; read-out: RLUC 50% HS EC50) [nM] | EC50 (pLAI reporter virus; read-out: RLUC CCM EC50) [nM] | CC50 at 5 days (in vitro) [nM] | EC50 (HIV-1 (IIIB)) [nM] | CC50 (in vitro) [nM]
1 | CC1=NO[C@@]2(CC[C@H](C)N3C[C@H]2n2cc(C(=O)NCc4ccc(F)cc4F)c(=O)c(O)c2C3=O)[C@@H]1F (single isomer, unassigned) [Example 27 (peak 2)] | 0.6 | 160 | 0.3 | 45600 | – | –
2 | C[C@H]1CC[C@]2(CC(=O)N(Cc3ccc(F)cc3)O2)[C@H]2CN1C(=O)c1c(O)c(=O)c(C(=O)NCc3c(F)cc(F)cc3F)cn12 (single isomer, unassigned) [Example 115] | 1.2 | 5.1 | 0.3 | ≥ 50000 | – | –
3 | CC1=NO[C@]2(CC[C@H](C)N3C[C@H]2n2cc(C(=O)NCc4ccc(F)cc4F)c(=O)c(O)c2C3=O)C1 [Example 2, (3′S,5R,7′R)—N-(2,4-difluorobenzyl)-12′-hydroxy-3,3′-dimethyl-1′,11′-dioxo-1′,4′,5′,11′-tetrahydro-3′H,4H,7′H-spiro[isoxazole-5,6′-[2,7]methanopyrido[1,2-a][1,4]diazonine]-10′-carboxamide] | 11.2 | 9.2 | 2.6 | ≥ 50000 | – | –
4 | CC1=NO[C@@]2(CC[C@H](C)N3C[C@H]2n2cc(C(=O)NCc4c(F)cc(F)cc4F)c(=O)c(O)c2C3=O)C1 [Example 3, (3′S,5S,7′R)-12′-hydroxy-3,3′-dimethyl-1′,11′-dioxo-N-(2,4,6-trifluorobenzyl)-1′,4′,5′,11′-tetrahydro-3′H,4H,7′H-spiro[isoxazole-5,6′-[2,7]methanopyrido[1,2-a][1,4]diazonine]-10′-carboxamide] | 0.9 | 71.2 | 0.2 | 20100 | – | –
5 | CC1=NO[C@]2(CC[C@H](C)N3C[C@H]2n2cc(C(=O)NCc4c(F)cc(F)cc4F)c(=O)c(O)c2C3=O)C1 [Example 4, (3′S,5R,7′R)-12′-hydroxy-3,3′-dimethyl-1′,11′-dioxo-N-(2,4,6-trifluorobenzyl)-1′,4′,5′,11′-tetrahydro-3′H,4H,7′H-spiro[isoxazole-5,6′-[2,7]methanopyrido[1,2-a][1,4]diazonine]-10′-carboxamide] | 5.7 | 4.6 | 3 | ≥ 50000 | – | –
6 | CC1=NO[C@]2(C1)C[C@H](F)[C@H](C)N1C[C@H]2n2cc(C(=O)NCc3ccc(F)cc3F)c(=O)c(O)c2C1=O [Example 5, (3′S,4′S,5R,7′R)—N-(2,4-difluorobenzyl)-4′-fluoro-12′-hydroxy-3,3′-dimethyl-1′,11′-dioxo-1′,4′,5′,11′-tetrahydro-3′H,4H,7′H-spiro[isoxazole-5,6′-[2,7]methanopyrido[1,2-a][1,4]diazonine]-10′-carboxamide] | 1.6 | 27.4 | 0.4 | 25800 | – | –
7 | CC1=NO[C@@]2(CC[C@H](C)N3C[C@H]2n2cc(C(=O)NCc4ccc(F)c(Cl)c4F)c(=O)c(O)c2C3=O)C1 [Example 6, (3′S,5S,7′R)—N-(3-chloro-2,4-difluorobenzyl)-12′-hydroxy-3,3′-dimethyl-1′,11′-dioxo-1′,4′,5′,11′-tetrahydro-3′H,4H,7′H-spiro[isoxazole-5,6′-[2,7]methanopyrido[1,2-a][1,4]diazonine]-10′-carboxamide] | 0.5 | 543 | 0.2 | 9280 | – | –
8 | CC(C)C1=NO[C@@]2(CC[C@H](C)N3C[C@H]2n2cc(C(=O)NCc4ccc(F)cc4F)c(=O)c(O)c2C3=O)C1 [Example 7, (3′S,5S,7′R)—N-(2,4-difluorobenzyl)-12′-hydroxy-3-isopropyl-3′-methyl-1′,11′-dioxo-1′,4′,5′,11′-tetrahydro-3′H,4H,7′H-spiro[isoxazole-5,6′-[2,7]methanopyrido[1,2-a][1,4]diazonine]-10′-carboxamide] | 1.9 | 1.6 | 0.5 | 38200 | – | –
9 | CCC1=NO[C@@]2(CC[C@H](C)N3C[C@H]2n2cc(C(=O)NCc4ccc(F)cc4F)c(=O)c(O)c2C3=O)C1 [Example 8, (3′S,5S,7′R)—N-(2,4-difluorobenzyl)-3-ethyl-12′-hydroxy-3′-methyl-1′,11′-dioxo-1′,4′,5′,11′-tetrahydro-3′H,4H,7′H-spiro[isoxazole-5,6′-[2,7]methanopyrido[1,2-a][1,4]diazonine]-10′-carboxamide] | 0.8 | 75.2 | 0.2 | 14800 | – | –
10 | C[C@H]1CC[C@]2(CC(CC(F)(F)F)=NO2)[C@H]2CN1C(=O)c1c(O)c(=O)c(C(=O)NCc3c(F)cc(F)cc3F)cn12 [Example 9] | 0.8 | 146 | 0.5 | 10200 | – | –
11 | C[C@H]1CC[C@]2(CC(CCCCCl)=NO2)[C@H]2CN1C(=O)c1c(O)c(=O)c(C(=O)NCc3c(F)cc(F)cc3F)cn12 [Example 10, (3′S,5S,7′R)-3-(4-chlorobutyl)-12′-hydroxy-3′-methyl-1′,11′-dioxo-N-(2,4,6-trifluorobenzyl)-1′,4′,5′,11′-tetrahydro-3′H,4H,7′H-spiro[isoxazole-5,6′-[2,7]methanopyrido[1,2-a][1,4]diazonine]-10′-carboxamide] | 1.7 | 5.5 | 1 | 5860 | – | –
12 | C[C@H]1CC[C@]2(CC(c3ccccc3)=NO2)[C@H]2CN1C(=O)c1c(O)c(=O)c(C(=O)NCc3ccc(F)cc3F)cn12 [Example 11, (3′S,5S,7′R)—N-(2,4-difluorobenzyl)-12′-hydroxy-3′-methyl-1′,11′-dioxo-3-phenyl-1′,4′,5′,11′-tetrahydro-3′H,4H,7′H-spiro[isoxazole-5,6′-[2,7]methanopyrido[1,2-a][1,4]diazonine]-10′-carboxamide] | 1.8 | 15.4 | 1.7 | 8730 | – | –
13 | C[C@H]1CC[C@]2(CC(Cc3ccccc3)=NO2)[C@H]2CN1C(=O)c1c(O)c(=O)c(C(=O)NCc3ccc(F)cc3F)cn12 [Example 12, (3′S,5S,7′R)-3-benzyl-N-(2,4-difluorobenzyl)-12′-hydroxy-3′-methyl-1′,11′-dioxo-1′,4′,5′,11′-tetrahydro-3′H,4H,7′H-spiro[isoxazole-5,6′-[2,7]methanopyrido[1,2-a][1,4]diazonine]-10′-carboxamide] | – | 35.6 | 1.1 | – | 1.7 | 23500
14 | C[C@H]1CC[C@]2(CC(c3ccccn3)=NO2)[C@H]2CN1C(=O)c1c(O)c(=O)c(C(=O)NCc3ccc(F)cc3F)cn12 [Example 13, (3′S,5S,7′R)—N-(2,4-difluorobenzyl)-12′-hydroxy-3′-methyl-1′,11′-dioxo-3-(pyridin-2-yl)-1′,4′,5′,11′-tetrahydro-3′H,4H,7′H-spiro[isoxazole-5,6′-[2,7]methanopyrido[1,2-a][1,4]diazonine]-10′-carboxamide] | 4.3 | 2.1 | 1.5 | ≥ 50000 | – | –
15 | C[C@H]1CC[C@]2(CC(c3cccnc3)=NO2)[C@H]2CN1C(=O)c1c(O)c(=O)c(C(=O)NCc3ccc(F)cc3F)cn12 [Example 14, (3′S,5S,7′R)—N-(2,4-difluorobenzyl)-12′-hydroxy-3′-methyl-1′,11′-dioxo-3-(pyridin-3-yl)-1′,4′,5′,11′-tetrahydro-3′H,4H,7′H-spiro[isoxazole-5,6′-[2,7]methanopyrido[1,2-a][1,4]diazonine]-10′-carboxamide] | 1.6 | 4.1 | 0.8 | 16700 | – | –
16 | C[C@H]1CC[C@]2(CC(C3CC3)=NO2)[C@H]2CN1C(=O)c1c(O)c(=O)c(C(=O)NCc3ccc(F)cc3F)cn12 [Example 15, (3′S,5S,7′R)-3-cyclopropyl-N-(2,4-difluorobenzyl)-12′-hydroxy-3′-methyl-1′,11′-dioxo-1′,4′,5′,11′-tetrahydro-3′H,4H,7′H-spiro[isoxazole-5,6′-[2,7]methanopyrido[1,2-a][1,4]diazonine]-10′-carboxamide] | 2.4 | 3.8 | 0.8 | ≥ 50000 | – | –
17 | C[C@H]1CC[C@]2(CC(CO)=NO2)[C@H]2CN1C(=O)c1c(O)c(=O)c(C(=O)NCc3ccc(F)cc3F)cn12 [Example 16, (3′S,5S,7′R)—N-(2,4-difluorobenzyl)-12′-hydroxy-3-(hydroxymethyl)-3′-methyl-1′,11′-dioxo-1′,4′,5′,11′-tetrahydro-3′H,4H,7′H-spiro[isoxazole-5,6′-[2,7]methanopyrido[1,2-a][1,4]diazonine]-10′-carboxamide] | 2.6 | 52.9 | 2.8 | 49400 | – | –
18 | C[C@H]1CC[C@]2(CC(CF)=NO2)[C@H]2CN1C(=O)c1c(O)c(=O)c(C(=O)NCc3ccc(F)cc3F)cn12 [Example 17, (3′S,5S,7′R)—N-(2,4-difluorobenzyl)-3-(fluoromethyl)-12′-hydroxy-3′-methyl-1′,11′-dioxo-1′,4′,5′,11′-tetrahydro-3′H,4H,7′H-spiro[isoxazole-5,6′-[2,7]methanopyrido[1,2-a][1,4]diazonine]-10′-carboxamide] | 0.6 | 226 | 0.2 | 20500 | – | –
19 | C[C@H]1CC[C@@]2(CC(CF)=NO2)[C@H]2CN1C(=O)c1c(O)c(=O)c(C(=O)NCc3ccc(F)cc3F)cn12 [Example 18, (3′S,5R,7′R)—N-(2,4-difluorobenzyl)-3-(fluoromethyl)-12′-hydroxy-3′-methyl-1′,11′-dioxo-1′,4′,5′,11′-tetrahydro-3′H,4H,7′H-spiro[isoxazole-5,6′-[2,7]methanopyrido[1,2-a][1,4]diazonine]-10′-carboxamide] | 4.5 | 2.4 | 1.6 | ≥ 50000 | – | –
